The record followed here is patent US20040121009A1, “Method of modifying the release profile of sustained release compositions” (Alkermes Controlled Therapeutics, Inc., priority 2002, published 2004).

For series [1] the following is noted: for amount of peripheral fibrosis surrounding the microsphere depot in the subcutis / intensity of the granulomatous inflammatory reaction within the microsphere mass: co-administration with EPO-containing microparticles; for color of the skin overlying microsphere depots: rat, in vivo. The method, then: Animals were anesthetized with 5% halothane. Each animal was shaved and the back swabbed with alcohol. […] The microparticles were prepared as described above. The microparticles were injected into an interscapular site using a 21 gauge thinwall needle attached to a 1 mL syringe. Animals were dosed to receive a total of 10,000 U EPO either alone (Group A) or in combination with a total of 5 mg of hydrocortisone acetate (Group B), or 1 mg (Group C) or 5 mg (Group D) of triamcinolone diacetate. Animals were followed for 35 days post implantation.

Series [2] in a line: Example 3: hematocrit testing. The series is classed as in vivo, rat. To be noted: day 19 (maximum for corticosteroid groups); Groups A, B, C of Table 3. How it is done: (§1) Animals were dosed to receive a total of 10,000 Units of EPO in combination with a total of 100 mg of placebo microparticles (Group A), 5 mg of triamcinolone acetonide and 100 mg of placebo microparticles admixed (Group B) and 100 mg of 20% w/w hydrocortisone-containing microparticles (Group C). Sample collection time points were pre-bleed, 1, 2, 6, 12, 19, and 26 days.
To evaluate EPO serum levels, 0.4 mL samples were collected via tail vein on the days specified in Table 3 (four animals per group). After clotting, the samples were centrifuged and frozen (−70° C.). Serum EPO levels were quantitated by ELISA (R&D Systems), according to the manufacturer's instructions (Cat. No. DEP00, and the data were normalized for dose and body weight. Starting on day 12, serum samples were also assessed for EPO antibody levels weekly, using an ELISA This assay detects all antibody subclasses inasmuch as the detecting antibody is reactive with both immunoglobulin heavy (γ) and light chains. Hematocrit analyses were carried out as described in Example 1, and were tested at the following intervals relative to time of microsparticle administration: pre-bleed, 1, 2, 6, 12, 19, and 26 days.

Series [3] in a line: Example 3: serum EPO levels by ELISA. The series is classed as in vivo, rat. To be noted: 10,000 U EPO microparticles plus 100 mg placebo microparticles (A), 5 mg triamcinolone acetonide admixed with 100 mg placebo microparticles (B) or 100 mg 20% hydrocortisone microparticles (C). The method, then: as §1
To evaluate EPO serum levels, 0.4 mL samples were collected via tail vein on the days specified in Table 3 (four animals per group). After clotting, the samples were centrifuged and frozen (−70° C.).
(In an ELISA, binding on a coated surface is turned into a signal by an enzyme label.)

Series [4] has as its system anti-EPO antibody. Nature of the series: Example 3: immunogenicity, anti-EPO antibody ELISA of sera. The class given is in vivo, rat.
Series [5] can be described thus: Example 1: hematocrit testing. To be noted: day 36; EPO microparticles plus 1 mg secondary agent (Group C). The class given is in vivo, rat. The method, then:
Animals were anesthetized with 5% halothane. […] The microparticles were prepared as described above. […] Hematocrits were evaluated manually following centrifugation for 5 minutes at 8000 rpm (on four animals per group) using a capillary tube.

On to `CC(=O)OCC(=O)[C@@]1(O)CC[C@H]2[C@@H]3CCC4=CC(=O)CC[C@]4(C)[C@H]3[C@@H](O)C[C@@]21C` [hydrocortisone acetate], for which, in series [1], the “amount of peripheral fibrosis surrounding the microsphere depot in the subcutis” value is given as “diminished”, the “intensity of the granulomatous inflammatory reaction within the microsphere mass” value is listed as “reduced” and the “color of the skin overlying microsphere depots” value is “pallid in most rats”.

Consider `CC1(C)O[C@@H]2C[C@H]3[C@@H]4CCC5=CC(=O)C=C[C@]5(C)[C@@]4(F)[C@@H](O)C[C@]3(C)[C@]2(C(=O)CO)O1` [triamcinolone acetonide], for which, in series [2], the hematocrit values is reported as 69.3%±3.3. The “average serum EPO levels (steady state) between day 6 and day 19” value in series [3] stood at 148.6±102.9 mU/mL. Further, the “incidence of animals with anti-EPO antibodies” value in series [4] (day 19, n=4/group) is reported as “only one animal”; in series [4] (day 33), 75%. For the same compound, the anti-EPO antibody titer in series [4] (day 19, the one positive animal of Group B) was found to be 1800. Also, in series [4] (day 33), the “EPO antibody titer as percentage of the titer in the control group” value is on record as “about 50%”.

Take `CC(=O)OCC(=O)[C@@]1(O)[C@H](OC(C)=O)C[C@H]2[C@@H]3CCC4=CC(=O)C=C[C@]4(C)[C@@]3(F)[C@@H](O)C[C@@]21C` [triamcinolone diacetate]: in series [5], the hematocrit values result is listed as “mid-60%”. Besides, in series [1], the “amount of peripheral fibrosis surrounding the microsphere depot in the subcutis” value is “diminished”, the “intensity of the granulomatous inflammatory reaction within the microsphere mass” value is on record as “reduced” and the “color of the skin overlying microsphere depots” value was “pallid in most rats”.
